Measured values: patent publication US20160287602A1, “METHODS FOR PROMOTING MOTOR NEURON SURVIVAL” (PRESIDENT AND FELLOWS OF HARVARD COLLEGE, priority 2013, published 2016)
Entries after “also recorded” stand apart in the source; their conditions may differ.

Tests used:
[1] = system: SOD1^G93A (SOD1^G93A/Hb9::GFP) mouse ESC derived MNs; assay: MN survival after trophic factor withdrawal, mixed culture; assay type: cell-based
Description: In the present study, we have screened highly specific small molecule kinase inhibitors to identify those which could promote MN survival. For the screen, we generated MNs from wild-type (Hb9::GFP) and SOD1^G93A (SOD1^G93A/Hb9::GFP) mouse ESCs using published protocols (Di Giorgio et al., 2007). We withdrew trophic factors as a standard method to induce MN death. Cell plating density as well as timing for initiation and duration of trophic factor withdrawal were used exactly as published to achieve ˜80% MN death in 3 days (FIG. 1A) (Yang et al., 2013). […] We continued to work with this compound class as it reproducibly promoted survival of both MNs types and the effect was robust. We further reasoned that since this compound class promoted survival of both MN types, the probability of its working in other contexts such as on human MNs and in the ALS mouse model was maximum.
High expression of Aurora kinases is associated with various types of cancer (Sen et al., 1997; Reichardt et al., 2003; Tchatchou et al., 2007) and there are many AKIs including VX-680 and ZM447439 that are in clinical trials for anti-cancer drug development.
Trophic factors were removed and ZM447439 was added to the cultures as previously and MN survival was analyzed on day 7, 14 & 21.

[2] = system: iPSCs derived MNs; assay: iPSC derived MNs co-cultured with wild type or SOD1^G93A astrocytes; assay type: cell-based, human; conditions: iPSCs derived MNs cultured on wild type or SOD1^G93A astrocytes
Description: (§1) We produced MNs from human iPSCs lines including a healthy control, two ALS patients expressing confirmed mutations in SOD1 (Boulting et al., 2011), two with mutations in TDP-43 and one in C90RF72. We treated these cultures with AraC to minimize the number of proliferating progenitors. […] We also examined the effect of SOD 1^G93A astrocytes co-culture on iPSC derived MNs. We found no toxic effect on survival in any of the patient iPSC derived MNs, but we did observe decreased MN survival in the control iPSC derived MNs. […] We also looked at the effect of AKIs on morphology and synapse formation. […] In addition, by immunoblot we observed that ZM447439 enhanced synaptic protein, synaptophysin, expression in both the presence and absence of trophic factors.

[3] = system: Prkarlb; assay: Prkar1b immunostaining in surviving MNs; assay type: cell-based, mouse; conditions: absence of TFs
[4] = system: FACS purified MNs; assay: Area of MN cell bodies in astrocyte co-culture; assay type: cell-based, mouse
Experimental: We sought to examine whether AKIs decrease the toxic effect of SOD1^G93A mutant astrocytes. We first cultured primary astrocytes from wild type (WT) and SOD1^G93A mice and plated FACS purified MNs on top. We observed significant cell death when MNs were cultured on mutated astrocytes compared to WT astrocytes. ZM447439 improved both Hb9::GFP and SOD1^G93A/Hb9::GFP MN survival.

[5] = system: human iPSC derived MNs (healthy control, SOD1, TDP-43, C90RF72); assay: Human iPSC derived MN survival; assay type: cell-based
Description: as §1

[6] = system: synaptophysin; assay: Synaptophysin immunoblot, iPSC-derived MNs; assay type: cell-based, human; conditions: both the presence and absence of trophic factors
Description: as §1

[7] = system: iPSC-derived MN lines; assay: Synapse formation of iPSC-derived MNs; assay type: cell-based, human; conditions: all iPSC-derived MN lines, absence of trophic factor
Description: as §1

[8] = system: iPSC-derived MN lines; assay: Morphology of iPSC-derived MNs; assay type: cell-based, human; conditions: all iPSC-derived MN lines, absence of trophic factor
Description: as §1

[9] = system: HuES-3/Hb9::GFP human ESC derived MNs; assay: Human ESC derived MN survival after trophic factor withdrawal; assay type: cell-based; conditions: trophic factors withdrawn
Description: We generated MNs from a human ESC line expressing an HB9::GFP transgene [HuES-3/Hb9::GFP (Di Giorgio et al., 2008)]. Human ESC derived MN cultures were pre-treated with AraC to eliminate progenitor cells. We induced MN death by again withdrawing trophic factors. […] We also investigated the toxic effect of SOD1^G93A astrocytes on human ESC derived MN survival. We found significant death of human MNs cultured on mutant astrocytes.

SMILES: COc1cc2c(Nc3ccc(NC(=O)c4ccccc4)cc3)ncnc2cc1OCCCN1CCOCC1 [ZM447439, N-[4-[[6-Methoxy-7-[3-(4-morpholinyl)propoxy]-4-quinazolinyl]amino]phenyl]benzamide]
- basal MN death ([1]; in presence of neurotrophic factors, day 7, 14 & 21): prevented
- survival of MNs (number of surviving MNs) ([1]; trophic factor withdrawal, 3 days, SOD1^G93A/Hb9::GFP MNs): consistently increased the survival of MNs; also recorded: most potent and robust at increasing survival
- long term MN survival ([1]; trophic factors removed, day 7, 14 & 21, SOD1^G93A/Hb9::GFP MNs): increased survival
- MN survival in astrocyte co-culture [2]: improved survival
- levels of Prkarlb [3]: increased levels
- area of MN cell bodies [4]: increased
- MN survival ([5]; all human iPSC derived MN cultures, AraC treated): substantially increase MN survival
- MN survival, comparison of VX-680 and ZM447439 ([5]; human iPSC derived MN cultures): more effective and potent in rescuing human MN death
- synaptic protein synaptophysin expression [6]: enhanced
- synapse formation [7]: preserved both
- morphology [8]: preserved both
- human MN survival, comparison of VX-680 and ZM447439 ([9]; FIG. 7A): more effective and potent in preventing MN death
- human MN survival ([9]; AraC pre-treated cultures): rescued human MN death
